Assay results reported in patent US4209439A, “Stabilization of vinyl resins” (priority 1977, dated 1980).

Legend:
[1] = migration of stabiliser from PVC bottles into water at 50° C.; type: physicochemical; conditions: water 50° C.
Method: 2.2--Study of the migration
The migration or the extractability of the stabiliser from the PVC compound under the effect of various liquids (and particularly water) stored in a plastic container is of essential importance for the use of these stabilisers in the field of food packagings.
(§1) The technique as regards extraction was the following: using the formula which is given below, a batch of bottles (volume 1 liter, diameter 70 mm, height.perspectiveto.230 mm) was prepared, the said bottles being filled with a liquid simulating the foods. […] The migration of the stabiliser was judged by dosage of the pyridine present in the extractum, using the dosage method which is later described. This pyridine obviously represents the oxidised form of the extracted 1,4-dihydropyridine.
The investigation was particularly developed for water at 50° C. over a period of 2 months, because it represents the important problem regarding the packaging of mineral waters.
Formula for the manufacture of bottles
The S L 2016 is a solution of zinc 2-ethyl hexanoate in a mixture of aromatic hydrocarbons boiling from 158° to 184° C.
(§2) The stabilisers are measured out in the form of their oxidation product (pyridine).
(§3) The oxidation is made quantitative by adding a few drops of iodine to the solution. The latter is then extracted with chloroform and the chloroform is evaporated to a small residual volume. The solution obtained is then subjected to thin-film chromatography, by comparison with solutions of known concentration of the desired pyridines.
(§4) The sensitivity threshold of this technique is 5 μg/liter.

[2] = migration of stabiliser from PVC into solutions or solvents simulating foods at 50° C.; type: physicochemical
Method: as §1, §2, §3, §4
For justifying the possibility of using the dihydropyridines (I) having a radical R comprising from 9 to 22 carbon atoms in applications concerned with food packaging, other than those applications relating to mineral waters, the extractability of the dihydropyridines by several solutions or solvents having the following composition, by weight, was investigated:
(a) water-sodium chloride: 97-3
(b) water-saccharose: 90-10
(c) water-sodium chloride-acetic acid: 98.5-0.5-1
(d) water-citric acid (solution at pH=5): 98-2
(e) water-acetic acid: 97-3
(f) water-acetic acid: 90-10
(h) water-acetic acid: 50-50

[3] = sublimation at 160° C. for 6 hours under nitrogen; type: physicochemical
Method: A test sample of about 130 mg of the product to be investigated is introduced into a 100 cc beaker. The latter is placed in a 250 cc reactor. The temperature is kept at 160° C. by means of a thermostatically controlled oil bath for 6 hours, the atmosphere of the reactor being inert (nitrogen) in order to avoid the oxidation of the 1,4-dihydropyridine into pyridine, which is more sublimable.
For each dihydropyridine derivative which is investigated, the result is expressed as a percentage of sublimed product relatively to the quantity being used.

[4] = stabilisation of plasticised polyvinyl chloride resins: mixing at 180° C., pressing at 170° C.; conditions: for Colour stability / Thermal stability: 180° C.
Method: Sheets of polyvinyl chloride, previously mixed for 5 minutes at 180° C., were pressed for 5 minutes at 170° C., and the colour stability and the heat stability after mixing, and then the coloration of the sheets after pressing, were observed.
As adjuvants, as well as the stabiliser to be tested, the resin in question contains wax E, dioctyl phthalate, barium stearate and cadmium stearate, in the following proportions: […]

[5] = thermostability of rigid vinyl chloride-vinylidene chloride copolymer, ventilated oven at 210° C.; conditions: 0.15 p.c.r.; Example 29
Method: Rigid copolymer formula vinyl chloride-vinylidene chloride copolymer.
Passage through a ventilated oven at 210° C.
Passage through ventilated oven at 210° C.
Passage in ventilated oven at 210° C.

[6] = polarographic study of the oxidation potential (Example 30); type: physicochemical; conditions: acetonitrile, lithium perchlorate; calomel electrode; in V (unit assumed)
Description: 261. Polarographic study of the oxidation potential […]
reference electrode: a calomel electrode which contains, as junction liquid, a saturated solution of anhydrous lithium perchlorate working electrode: rotating electrode of vitreous carbon (2500 r.p.m.) counter-electrode: platinum. acetonitrile, having a water content smaller than 0.1% and not presenting any polarographic waves between -2.5 volts and +2.5 volts.
0.1 M solution of lithium perchlorate in acetonitrile, treated and preserved on a molecular screen of 4 A. […]
exploration amplitude: 0 to 2 V exploration speed: 10 mV/sec.

[7] = polarographic oxidation potential (Example 31); type: physicochemical; conditions: 0.5 m.mole/liter; methanol/acetic acid; 35° C.
Method: platinum counter-electrode and calomel electrode with filling by a saturated aqueous solution of lithium chloride.
The measurements were carried out in the following solvent:
90 parts of an 0.1 M solution of lithium perchlorate in methanol, 10 parts of a 0.1 M solution of perchloric acid in acetic acid. square voltage superimposed with constant pulses of +10 millivolts, initial potential: 500 millivolts, scanning voltage: 1000 millivolts in the anode direction, oxidation at the vitreous carbon electrode (speed of rotation: 2000 r.p.m.)

[8] = resin 5: 0.1, Ba 0.375, Cd 0.375
[9] = resin 7: 0.05, Ba 0.375, Cd 0.15
[10] = resin 9: 0.05, Ba 0.375, Cd 0.05

SMILES: COC(=O)C1=C(C)NC(C)=C(C(=O)OC)C1 [L.28504, 2,6-Dimethyl-3,5-dicarbomethoxy-1,4-dihydropyridine]
- Migration ([1]; 0.15 pct, 1 month): 70 µg/L
- Migration ([1]; 0.15 pct, 2 months): 80 µg/L
- Migration ([1]; 0.15 pct, 10 days): 15 µg/L
- Migration ([1]; 0.15 pct, 20 days): 40 µg/L
- Migration ([1]; 0.30 pct, 1 month): 120 µg/L
- Migration ([1]; 0.30 pct, 2 months): 120 µg/L
- Migration ([1]; 0.30 pct, 10 days): 70 µg/L
- Migration ([1]; 0.30 pct, 20 days): 100 µg/L
- Migration ([2]; H2O/NaCl (97:3), 0.3, 1 month): 100 µg/L
- Migration ([2]; H2O/NaCl (97:3), 0.3, 2 months): 120 µg/L
- Migration ([2]; Heptane, 0.3 pcr, after 36 h): 300 µg/L
- Migration ([2]; Heptane, 0.3 pcr, after 84 h): 390 µg/L
- Migration ([2]; Water/C2H5OH (50:50), 0.3, 1 month): 250 µg/L
- Migration ([2]; Water/C2H5OH (85:15), 0.3, 1 month): 150 µg/L
- Migration ([2]; Water/C2H5OH (85:15), 0.3, 2 months): 180 µg/L
- Migration ([2]; Water/CH3COOH (50:50), 0.3, 1 month): 150 µg/L
- Migration ([2]; Water/CH3COOH (50:50), 0.3, 2 months): 200 µg/L
- Migration ([2]; Water/CH3COOH (90:10), 0.3, 1 month): 120 µg/L
- Migration ([2]; Water/CH3COOH (90:10), 0.3, 2 months): 140 µg/L
- Migration ([2]; Water/CH3COOH (97:3), 0.3, 1 month): 90 µg/L
- Migration ([2]; Water/CH3COOH (97:3), 0.3, 2 months): 120 µg/L
- Migration ([2]; Water/NaCl/CH3COOH (98,5:0,5:1), 0.3, 1 month): 110 µg/L
- Migration ([2]; Water/NaCl/CH3COOH (98,5:0,5:1), 0.3, 2 months): 120 µg/L
- Migration ([2]; Water/Sacchrose (90:10), 0.3, 1 month): 100 µg/L
- Migration ([2]; Water/Sacchrose (90:10), 0.3, 2 months): 100 µg/L
- Migration ([2]; Water/citric acid (98:2), pH 5, 0.3, 1 month): 110 µg/L
- Migration ([2]; Water/citric acid (98:2), pH 5, 0.3, 2 months): 130 µg/L
- % of sublimed product ([3]; 160° C., 6 hours, nitrogen): 34.2%
- sublimation ([3]; of the quantity of product being used): 34%
- Colour stability [4, 8]: 50 min
- Thermal stability [4, 8]: 50 min
- Colour stability [4, 9]: 45 min
- Thermal stability [4, 9]: 55 min
- Colour stability [4, 10]: 35 min
- Thermal stability [4, 10]: 50 min
- basic shade and thermal stability ([4]; words): substantially improves the basic shade and clearly increases the thermal stability
- thermostabilisation of copolymer versus 2-phenyl indole [5]: better result than 0.3 p.c.r. of 2-phenyl indole
- Oxidation potential [6]: 0.74 ± 0.01
- Oxidation potential [7]: 850 millivolts
